Measurements reported in paper PMC12785564, “Targeting Melanin Production: The Safety of Tyrosinase Inhibition” (International Journal of Molecular Sciences, 2025).

Experiments:
3T3 [1] = tested on: 3T3; parameters: method as in PMID 15598357; conditions: same assay; read-out: IC50 for cytotoxicity in 3T3 Neutral Red Uptake (NRU); cited from earlier work
[2] = tested on: reconstructed human epidermis; assay: in vitro skin corrosion / skin irritation, OECD TG 431 and 439 (human skin model, reconstructed human epidermis); type: cell-based; conditions: non-animal OECD methods
Excerpt: These are amongst the first and most established non-animal methods adopted by the Organisation for Economic Co-operation and Development. Clinical skin tolerability studies for the final formulation containing Thiamidol provide confirmatory evidence but also information about consumer sensory experiences.
(§1) Thiamidol used for testing was sourced from Alzchem Group AG (Trostberg, Germany) with a purity of 99% w/w. For standard toxicological endpoints of skin irritation, phototoxicity and genotoxicity, in vitro studies were performed following equivalent methods to those described in the corresponding OECD Testing Guidelines: OECD Test Guideline No. 431 (In Vitro Skin Corrosion: Human Skin Model Test); OECD Test Guideline No. 439 (In Vitro Skin Irritation: Reconstructed Human Epidermis Test Method); OECD Test Guideline No. 432 (In Vitro 3T3 NRU Phototoxicity Test); OECD Test Guideline No. 471 (Bacterial Reverse Mutation Assay); OECD Test Guideline No. 487 (in vitro Mammalian Cell Micronucleus Test); and OECD Test Guideline No. 476 (in vitro Mammalian Cell Gene Mutation Test).

[3] = 3T3 Neutral Red Uptake (NRU) cytotoxicity / phototoxicity, OECD TG 432; type: cell-based; conditions: mouse, 3T3 cells; absence of UV light; Beiersdorf internal report; read-out: NR50 (IC50 for neural uptake), cytotoxicity in 3T3 NRU
Excerpt: (§2) From established in vitro guideline studies, potential genotoxicity and toxic effects at a cellular level can be elucidated. This can be complemented with a weight-of-evidence of any observed indicators of cytotoxicity in multiple assays. For instance, the 3T3 Neutral Red Uptake (NRU) assay, which was initially developed for phototoxicity, can provide an indication for local toxicity in the absence of UV light.
as §1

3T3 [4] = assay: as above; type: cell-based; conditions: presence of UV light
Excerpt: as §2, §1

[5] = substrate depletion in human hepatocytes; type: in vitro ADME; conditions: 5 μM, 37 °C, over 240 min
Protocol: (§3) Metabolism in skin is evident with approx. 50% of Thiamidol degraded in a pig skin assay compared to controls after 24 h, irrespective of test sample concentration. A semiquantitative analysis of the metabolites in the porcine in vitro model is shown in Figure 2, with the primary reactions due to direct glucuronic acid conjugation (phase II metabolism) at one of the free hydroxyl groups. Further degradation products could be attributed to a combination of phase I and phase II metabolism, i.e., hydroxylation and methylation.
(§4) A biotransformation study analyzed the degradation of Thiamidol in fresh pig skin at room temperature after 24 h exposure. A solution of 0.3% and 1.0% was prepared in 2-proanol. From this, about 25 µL of test solution was placed in three vials with 2.5 g of skin, as well as controls without skin or containing skin only. All samples were mixed with 0.5 mL of water, shaken and left open. Determination of the content of the test sample was carried out in parallel. After 24 h incubation, the samples were mixed with 2 mL of acetonitrile, placed in an ultrasonic bath for 10 min (resulting in a stop to any metabolic reactions) and extracted with 50% methanol, then shaken well and placed in an ultrasonic bath and filtered. […]
The in vitro intrinsic clearances and half-life readouts were expressed as µL/min/10^6 cells and in minutes, respectively. […]

hyperpigmentation = conditions: cited from earlier work
COX2 = molecular target: T1, COX2 (Homo sapiens, UniProt P35354); assay: SAFETYscan COX2 enzymatic inhibition; type: biochemical; conditions: 0.1 µM to 10 µM tested
T1 construct: purchased Eurofins Discovery (San Diego, CA, USA), SAFETYscan E/IC50 SELECT service
T1 sequence (P35354 18-604): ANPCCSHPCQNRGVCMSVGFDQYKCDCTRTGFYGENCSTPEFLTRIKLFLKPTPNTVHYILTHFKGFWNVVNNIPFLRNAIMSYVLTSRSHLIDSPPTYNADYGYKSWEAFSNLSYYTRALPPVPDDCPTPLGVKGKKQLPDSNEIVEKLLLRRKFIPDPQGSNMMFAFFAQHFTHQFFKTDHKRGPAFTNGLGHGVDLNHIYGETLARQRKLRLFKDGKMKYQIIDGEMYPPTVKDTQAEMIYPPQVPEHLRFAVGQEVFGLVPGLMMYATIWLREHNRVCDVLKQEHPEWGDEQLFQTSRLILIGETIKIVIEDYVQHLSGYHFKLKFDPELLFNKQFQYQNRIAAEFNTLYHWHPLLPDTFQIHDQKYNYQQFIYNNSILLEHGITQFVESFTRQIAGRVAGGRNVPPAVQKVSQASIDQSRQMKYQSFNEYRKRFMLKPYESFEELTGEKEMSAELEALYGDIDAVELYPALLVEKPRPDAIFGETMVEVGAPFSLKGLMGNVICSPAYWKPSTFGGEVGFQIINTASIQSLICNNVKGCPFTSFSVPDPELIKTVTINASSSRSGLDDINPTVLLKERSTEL
Protocol: (§5) Pharmacological profiling was performed with the SAFETYscan^TM E/IC50 SELECT service provided by Eurofins Discovery (San Diego, CA, USA), based on the findings of in vitro assays used in pharmaceutical companies. Increasing concentrations of Thiamidol (0.1 µM to 10 µM) were tested against various ion channels, and a total of seventy-eight assays performed utilizing various output reads, including GPCR cAMP modulation, calcium mobilization, nuclear hormone receptor interactions, KINOMEscan binding, ion channel interactions, transporter interactions and enzymatic reactions. Methods are available online via Eurofins Discovery in the format of a sample report.

COX1 = molecular target: T2, COX1 (Homo sapiens, UniProt P23219); assay: SAFETYscan COX1 enzymatic inhibition; type: biochemical; conditions: 0.1 µM to 10 µM tested
T2 construct: purchased Eurofins Discovery (San Diego, CA, USA), SAFETYscan E/IC50 SELECT service
T2 sequence (P23219 24-599): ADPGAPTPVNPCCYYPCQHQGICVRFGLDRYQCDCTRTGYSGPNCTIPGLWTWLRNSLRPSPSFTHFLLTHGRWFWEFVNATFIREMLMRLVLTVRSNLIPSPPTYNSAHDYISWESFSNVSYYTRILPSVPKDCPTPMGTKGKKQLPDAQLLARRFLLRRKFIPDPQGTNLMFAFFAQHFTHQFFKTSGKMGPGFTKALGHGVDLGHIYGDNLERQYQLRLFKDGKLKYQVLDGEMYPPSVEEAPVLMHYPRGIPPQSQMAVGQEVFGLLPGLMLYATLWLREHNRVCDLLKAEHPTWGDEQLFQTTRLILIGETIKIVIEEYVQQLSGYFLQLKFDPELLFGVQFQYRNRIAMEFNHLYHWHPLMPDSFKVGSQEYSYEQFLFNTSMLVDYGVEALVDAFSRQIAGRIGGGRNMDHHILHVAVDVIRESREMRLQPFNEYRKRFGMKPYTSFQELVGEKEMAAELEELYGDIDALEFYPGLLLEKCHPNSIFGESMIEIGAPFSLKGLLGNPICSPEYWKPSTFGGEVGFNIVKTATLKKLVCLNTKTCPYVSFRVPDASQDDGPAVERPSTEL
Protocol: as §5

[6] = molecular target: T3, monoamine oxidase A (MOAO) (Homo sapiens, UniProt P21397); assay: SAFETYscan monoamine oxidase A enzymatic inhibition; type: biochemical; conditions: 0.1 µM to 10 µM tested
T3 construct: purchased Eurofins Discovery (San Diego, CA, USA), SAFETYscan E/IC50 SELECT service
T3 sequence (P21397 1-527): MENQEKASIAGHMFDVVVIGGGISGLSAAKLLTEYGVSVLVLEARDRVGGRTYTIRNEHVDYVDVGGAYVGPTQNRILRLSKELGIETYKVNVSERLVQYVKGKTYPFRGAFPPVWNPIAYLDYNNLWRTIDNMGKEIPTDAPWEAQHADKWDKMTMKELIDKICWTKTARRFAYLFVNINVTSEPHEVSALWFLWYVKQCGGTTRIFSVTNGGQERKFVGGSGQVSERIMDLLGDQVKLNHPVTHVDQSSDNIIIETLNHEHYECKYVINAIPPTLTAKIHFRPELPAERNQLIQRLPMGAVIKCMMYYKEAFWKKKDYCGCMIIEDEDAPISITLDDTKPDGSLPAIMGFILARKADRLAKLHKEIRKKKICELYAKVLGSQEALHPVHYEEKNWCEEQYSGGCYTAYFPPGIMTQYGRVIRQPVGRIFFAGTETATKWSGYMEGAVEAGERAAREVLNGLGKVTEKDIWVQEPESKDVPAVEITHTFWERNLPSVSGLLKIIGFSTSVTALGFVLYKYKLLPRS
Protocol: as §5

[7] = molecular target: T4, norepinephrine transport (NET) (Homo sapiens, UniProt P23975); assay: SAFETYscan NET assay; type: biochemical; conditions: 0.1 µM to 10 µM tested
T4 construct: purchased Eurofins Discovery (San Diego, CA, USA), SAFETYscan E/IC50 SELECT service
T4 sequence (P23975 whole entry): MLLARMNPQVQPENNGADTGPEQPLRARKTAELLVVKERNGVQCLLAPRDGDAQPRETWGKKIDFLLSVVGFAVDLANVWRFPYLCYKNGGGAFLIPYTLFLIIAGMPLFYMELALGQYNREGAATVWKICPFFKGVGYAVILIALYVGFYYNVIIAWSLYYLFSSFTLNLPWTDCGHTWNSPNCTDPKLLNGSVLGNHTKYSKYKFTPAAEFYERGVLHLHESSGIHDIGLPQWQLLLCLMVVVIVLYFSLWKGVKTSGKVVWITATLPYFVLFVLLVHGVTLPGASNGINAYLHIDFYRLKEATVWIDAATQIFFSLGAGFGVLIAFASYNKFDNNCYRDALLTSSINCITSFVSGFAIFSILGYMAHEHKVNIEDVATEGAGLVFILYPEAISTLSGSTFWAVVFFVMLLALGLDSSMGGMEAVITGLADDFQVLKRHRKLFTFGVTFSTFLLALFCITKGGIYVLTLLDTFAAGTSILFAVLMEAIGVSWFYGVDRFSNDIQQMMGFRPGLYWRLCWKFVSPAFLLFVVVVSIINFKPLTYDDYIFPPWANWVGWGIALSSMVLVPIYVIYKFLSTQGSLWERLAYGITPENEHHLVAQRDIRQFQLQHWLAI
Protocol: as §5

dopamine transport (DAT) = molecular target: T5, dopamine transport (DAT) (Homo sapiens, UniProt Q01959); assay: SAFETYscan DAT assay; type: biochemical; conditions: 0.1 µM to 10 µM tested
T5 construct: purchased Eurofins Discovery (San Diego, CA, USA), SAFETYscan E/IC50 SELECT service
T5 sequence (Q01959 whole entry): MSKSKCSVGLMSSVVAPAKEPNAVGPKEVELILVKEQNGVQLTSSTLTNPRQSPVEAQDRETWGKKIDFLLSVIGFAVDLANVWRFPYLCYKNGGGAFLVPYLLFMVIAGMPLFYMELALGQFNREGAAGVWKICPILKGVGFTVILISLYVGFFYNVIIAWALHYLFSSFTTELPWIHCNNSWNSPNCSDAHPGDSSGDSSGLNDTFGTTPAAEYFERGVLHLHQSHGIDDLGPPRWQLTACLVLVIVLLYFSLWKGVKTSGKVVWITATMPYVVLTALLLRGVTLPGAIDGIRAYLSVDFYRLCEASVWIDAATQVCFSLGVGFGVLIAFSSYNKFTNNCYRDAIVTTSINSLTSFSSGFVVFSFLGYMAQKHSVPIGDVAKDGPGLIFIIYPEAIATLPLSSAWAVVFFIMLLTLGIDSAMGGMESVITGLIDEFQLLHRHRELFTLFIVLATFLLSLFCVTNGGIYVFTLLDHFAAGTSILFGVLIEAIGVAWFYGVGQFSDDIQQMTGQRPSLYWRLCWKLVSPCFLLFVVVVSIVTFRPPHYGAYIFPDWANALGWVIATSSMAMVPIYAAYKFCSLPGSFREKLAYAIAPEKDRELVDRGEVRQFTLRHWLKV
Protocol: as §5

[8] = molecular target: recombinant human tyrosinase (hTyr); parameters: method as in PMID 29427586; conditions: read-out: half-maximal inhibitory concentration (IC50) for hTyr; cited from earlier work
[9] = biotransformation in fresh pig skin; type: in vitro ADME; conditions: after 24 h, irrespective of test sample concentration (0.3% and 1.0%)
Protocol: as §3
as §4, with “filtered. Metabolites were then identified using liquid chromatography coupled with mass spectroscopy.” for “filtered.”

Oc1ccc(O)cc1 [hydroquinone]
IC50 (3T3 [1]): 12.9 µM

Oc1cccc(O)c1 [resorcinol, 1,3-benzenediol]
IC50 (3T3 [1]): 17.3 µM

CC(C)C(=O)Nc1nc(-c2ccc(O)cc2O)cs1 [Thiamidol, isobutylamido thiazolyl resorcinol]
skin corrosion and irritation category [2]: not categorized as corrosive or irritating to the skin | IC50 [3]: 136 µM | phototoxicity: distinction of NR50 in the presence of UV light (3T3 [4]): no biologically significant distinction | in vitro half-life in human hepatocytes [5]: in the minute range | adverse effects in clinical studies (hyperpigmentation; Thiamidol formulations, diverse skin- and phototypes): no significant adverse effects | effect on hyperpigmentation in clinical studies (hyperpigmentation; UV-induced solar lentigines, melasma, acne- and laser-induced PIH): effectively reduces hyperpigmentation | IC50 (COX2): > 1 µM | IC50 (COX1): > 1 µM | IC50 [6]: > 1 µM | IC50 [7]: 0.36 µM | IC50 (dopamine transport (DAT)): > 1 µM | IC50 [8]: 1.1 µM | degraded in pig skin assay compared to controls [9]: approx. 50%

Oc1ccccc1O [catechol]
IC50 (3T3 [1]): 0.1 µM
